Laboratory results taken from PubChem BioAssay (NCI).
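Assay format: 96-well plates, 48-hour exposure. TGI denotes the concentration required for complete inhibition of growth.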

Key:
Experiment in all cases: NCI-60 cell line screen, 48 h
786-0 renal = system: 786-0 renal
A498 renal = system: A498 renal
A549 NSCLC = system: A549 NSCLC
ACHN renal = system: ACHN renal
BT-549 breast = system: BT-549 breast
CAKI-1 renal = system: CAKI-1 renal
COLO 205 colon = system: COLO 205 colon
DU-145 prostate = system: DU-145 prostate
EKVX NSCLC = system: EKVX NSCLC
HCC-2998 colon = system: HCC-2998 colon
HCT-116 colon = system: HCT-116 colon
HCT-15 colon = system: HCT-15 colon
HL-60(TB) leukemia = system: HL-60(TB) leukemia
HOP-62 NSCLC = system: HOP-62 NSCLC
HOP-92 NSCLC = system: HOP-92 NSCLC
HS 578T breast = system: HS 578T breast
HT29 colon = system: HT29 colon
IGROV1 ovarian = system: IGROV1 ovarian
K-562 leukemia = system: K-562 leukemia
KM12 colon = system: KM12 colon
LOX IMVI melanoma = system: LOX IMVI melanoma
M14 melanoma = system: M14 melanoma
MALME-3M melanoma = system: MALME-3M melanoma
MCF7 breast = system: MCF7 breast
MDA-MB-231 breast = system: MDA-MB-231 breast
MDA-MB-435 = system: MDA-MB-435
MDA-N = system: MDA-N
MOLT-4 leukemia = system: MOLT-4 leukemia
NCI-H226 lung = system: NCI-H226 lung
NCI-H23 lung = system: NCI-H23 lung
NCI-H460 lung = system: NCI-H460 lung
NCI-H522 lung = system: NCI-H522 lung
NCI/ADR-RES ovarian = system: NCI/ADR-RES ovarian
OVCAR-3 ovarian = system: OVCAR-3 ovarian
OVCAR-4 ovarian = system: OVCAR-4 ovarian
OVCAR-5 ovarian = system: OVCAR-5 ovarian
OVCAR-8 ovarian = system: OVCAR-8 ovarian
PC-3 prostate = system: PC-3 prostate
RPMI-8226 leukemia = system: RPMI-8226 leukemia
RXF 393 renal = system: RXF 393 renal
SF-268 CNS = system: SF-268 CNS
SF-295 CNS = system: SF-295 CNS
SF-539 CNS = system: SF-539 CNS
SK-MEL-2 melanoma = system: SK-MEL-2 melanoma
SK-MEL-28 melanoma = system: SK-MEL-28 melanoma
SK-MEL-5 melanoma = system: SK-MEL-5 melanoma
SK-OV-3 ovarian = system: SK-OV-3 ovarian
SN12C renal = system: SN12C renal
SNB-19 CNS = system: SNB-19 CNS
SNB-75 CNS = system: SNB-75 CNS
SR leukemia = system: SR leukemia
SW-620 colon = system: SW-620 colon
T-47D breast = system: T-47D breast
TK-10 renal = system: TK-10 renal
U251 CNS = system: U251 CNS
UACC-257 melanoma = system: UACC-257 melanoma
UACC-62 melanoma = system: UACC-62 melanoma
UO-31 renal = system: UO-31 renal

Question: How did the TGI (786-0 renal) turn out when `COC1/C=C\OC2(C)Oc3c(C)c(O)c4c(O)c(c(CN(C)C)c(O)c4c3C2=O)NC(=O)/C(C)=C\C=C/C(C)C(O)C(C)C(O)C(C)C(OC(C)=O)C1C` (stereo not drawn) was run?
Answer: > 100 µM

Question: And the TGI (A498 renal)?
Answer: > 100 µM

Question: What about the TGI (A549 NSCLC) of the same compound?
Answer: > 100 µM

Question: And the TGI (ACHN renal)?
Answer: > 100 µM

Question: And the TGI (BT-549 breast)?
Answer: > 100 µM

Question: What about the TGI (CAKI-1 renal) of the same compound?
Answer: > 100 µM

Question: And the TGI (COLO 205 colon)?
Answer: 35.4 µM

Question: What about the TGI (DU-145 prostate) of the same compound?
Answer: > 100 µM

Question: What about the TGI (EKVX NSCLC) of the same compound?
Answer: 61.4 µM

Question: What about the TGI (HCC-2998 colon) of the same compound?
Answer: 55.8 µM

Question: What about the TGI (HCT-116 colon) of the same compound?
Answer: 37.9 µM

Question: And the TGI (HCT-15 colon)?
Answer: > 100 µM

Question: And the TGI (HL-60(TB) leukemia)?
Answer: 50.8 µM

Question: And the TGI (HOP-62 NSCLC)?
Answer: > 100 µM

Question: And the TGI (HOP-92 NSCLC)?
Answer: > 100 µM

Question: What about the TGI (HS 578T breast) of the same compound?
Answer: > 100 µM

Question: And the TGI (HT29 colon)?
Answer: 54.4 µM

Question: And the TGI (IGROV1 ovarian)?
Answer: > 100 µM

Question: What about the TGI (K-562 leukemia) of the same compound?
Answer: 85.2 µM

Question: And the TGI (KM12 colon)?
Answer: 99.6 µM

Question: And the TGI (LOX IMVI melanoma)?
Answer: 35 µM

Question: And the TGI (M14 melanoma)?
Answer: 42.1 µM

Question: And the TGI (MALME-3M melanoma)?
Answer: 39.3 µM

Question: What about the TGI (MCF7 breast) of the same compound?
Answer: 34.8 µM

Question: What about the TGI (MDA-MB-231 breast) of the same compound?
Answer: 92.8 µM

Question: What about the TGI (MDA-MB-435) of the same compound?
Answer: 78.6 µM

Question: And the TGI (MDA-N)?
Answer: > 100 µM

Question: And the TGI (MOLT-4 leukemia)?
Answer: 38.9 µM

Question: What about the TGI (NCI-H226 lung) of the same compound?
Answer: > 100 µM

Question: What about the TGI (NCI-H23 lung) of the same compound?
Answer: 31.3 µM

Question: What about the TGI (NCI-H460 lung) of the same compound?
Answer: > 100 µM

Question: And the TGI (NCI-H522 lung)?
Answer: 32.1 µM

Question: And the TGI (NCI/ADR-RES ovarian)?
Answer: > 100 µM

Question: And the TGI (OVCAR-3 ovarian)?
Answer: > 100 µM

Question: And the TGI (OVCAR-4 ovarian)?
Answer: > 100 µM

Question: What about the TGI (OVCAR-5 ovarian) of the same compound?
Answer: > 100 µM

Question: And the TGI (OVCAR-8 ovarian)?
Answer: > 100 µM

Question: And the TGI (PC-3 prostate)?
Answer: 72 µM

Question: What about the TGI (RPMI-8226 leukemia) of the same compound?
Answer: 40 µM

Question: And the TGI (RXF 393 renal)?
Answer: > 100 µM

Question: And the TGI (SF-268 CNS)?
Answer: > 100 µM

Question: What about the TGI (SF-295 CNS) of the same compound?
Answer: > 100 µM

Question: And the TGI (SF-539 CNS)?
Answer: 45.5 µM

Question: What about the TGI (SK-MEL-2 melanoma) of the same compound?
Answer: 42.5 µM

Question: What about the TGI (SK-MEL-28 melanoma) of the same compound?
Answer: 97.5 µM

Question: What about the TGI (SK-MEL-5 melanoma) of the same compound?
Answer: 36.8 µM

Question: What about the TGI (SK-OV-3 ovarian) of the same compound?
Answer: > 100 µM

Question: What about the TGI (SN12C renal) of the same compound?
Answer: 83.8 µM

Question: And the TGI (SNB-19 CNS)?
Answer: > 100 µM

Question: And the TGI (SNB-75 CNS)?
Answer: > 100 µM

Question: And the TGI (SR leukemia)?
Answer: 43.1 µM

Question: And the TGI (SW-620 colon)?
Answer: 75.6 µM

Question: And the TGI (T-47D breast)?
Answer: > 100 µM

Question: And the TGI (TK-10 renal)?
Answer: > 100 µM

Question: What about the TGI (U251 CNS) of the same compound?
Answer: 42.6 µM

Question: What about the TGI (UACC-257 melanoma) of the same compound?
Answer: 60.9 µM

Question: What about the TGI (UACC-62 melanoma) of the same compound?
Answer: 41.2 µM

Question: What about the TGI (UO-31 renal) of the same compound?
Answer: > 100 µM
